Measurements as given in the NIST ThermoML archive (doi:10.1016/j.fluid.2012.07.032).
± gives the expanded uncertainty stated by the source.

Key:
[1] = refractive index (Na D-line) (dimensionless); conditions: 101.33 kPa, Liquid, Standard Abbe refractometry
[2] = 101.33 kPa, Liquid, Vibrating tube method

CCCCO [butan-1-ol] gave a refractive index ([1]; 288.2 K) of 1.4013 ± 0.0004, a refractive index ([1]; 303.2 K) of 1.3952 ± 0.0004 and a refractive index ([1]; 318.2 K) of 1.3892 ± 0.0004. It also gave a mass density ([2]; 288.2 K) of 813.82 ± 0.14 kg/m3, a mass density ([2]; 303.2 K) of 802.407 ± 0.14 kg/m3 and a mass density ([2]; 318.2 K) of 790.724 ± 0.15 kg/m3.
Work on CCOC(C)=O [ethyl acetate] yielded a refractive index ([1]; 288.2 K) of 1.3749 ± 0.0004, a refractive index ([1]; 303.2 K) of 1.3672 ± 0.0004 and a refractive index ([1]; 318.2 K) of 1.3594 ± 0.0004. For the same molecule, the mass density ([2]; 288.2 K) was 906.89 ± 0.11 kg/m3, the mass density ([2]; 303.2 K) was 888.196 ± 0.12 kg/m3 and the mass density ([2]; 318.2 K) was 869.522 ± 0.12 kg/m3.
CCCOC(C)=O [propyl ethanoate] showed a refractive index ([1]; 288.2 K) of 1.3866 ± 0.0004, a refractive index ([1]; 303.2 K) of 1.3792 ± 0.0004 and a refractive index ([1]; 318.2 K) of 1.3717 ± 0.0004. The mass density ([2]; 288.2 K) was 894.325 ± 0.082 kg/m3, the mass density ([2]; 303.2 K) was 877.529 ± 0.089 kg/m3 and the mass density ([2]; 318.2 K) was 860.512 ± 0.095 kg/m3.
For O=Cc1ccco1 [2-furaldehyde], the refractive index ([1]; 288.2 K) was 1.528 ± 0.0004, the refractive index ([1]; 303.2 K) was 1.5206 ± 0.0004 and the refractive index ([1]; 318.2 K) was 1.5133 ± 0.0004. For the same molecule, the mass density ([2]; 288.2 K) was 1165.24 ± 0.37 kg/m3, the mass density ([2]; 303.2 K) was 1149.77 ± 0.35 kg/m3 and the mass density ([2]; 318.2 K) was 1133.83 ± 0.34 kg/m3.
With O [water] the refractive index ([1]; 288.2 K) was 1.3334 ± 0.0004, the refractive index ([1]; 303.2 K) was 1.3319 ± 0.0004 and the refractive index ([1]; 318.2 K) was 1.3298 ± 0.0004.
